Data as given in ChEMBL document CHEMBL5212743, “Selectivity Literature for EUbOPEN Chemogenomics Library wave 3” (2023).

Assays:
[1] = molecular target: Dual specificity tyrosine-phosphorylation-regulated kinase 1B (Homo sapiens, UniProt Q9Y463); assay: Selectivity interaction (KinomeScan (DiscoverX)) EUB0000297b DYRK1B; details: at 1 µM
[2] = molecular target: Rho-associated protein kinase 1 (Homo sapiens) (UniProt Q13464); assay: Selectivity interaction (KinomeScan (DiscoverX)) EUB0000297b ROCK1; details: at 1 µM
Sequence of Rho-associated protein kinase 1 (Homo sapiens) (Q13464 2-1354 limits assumed): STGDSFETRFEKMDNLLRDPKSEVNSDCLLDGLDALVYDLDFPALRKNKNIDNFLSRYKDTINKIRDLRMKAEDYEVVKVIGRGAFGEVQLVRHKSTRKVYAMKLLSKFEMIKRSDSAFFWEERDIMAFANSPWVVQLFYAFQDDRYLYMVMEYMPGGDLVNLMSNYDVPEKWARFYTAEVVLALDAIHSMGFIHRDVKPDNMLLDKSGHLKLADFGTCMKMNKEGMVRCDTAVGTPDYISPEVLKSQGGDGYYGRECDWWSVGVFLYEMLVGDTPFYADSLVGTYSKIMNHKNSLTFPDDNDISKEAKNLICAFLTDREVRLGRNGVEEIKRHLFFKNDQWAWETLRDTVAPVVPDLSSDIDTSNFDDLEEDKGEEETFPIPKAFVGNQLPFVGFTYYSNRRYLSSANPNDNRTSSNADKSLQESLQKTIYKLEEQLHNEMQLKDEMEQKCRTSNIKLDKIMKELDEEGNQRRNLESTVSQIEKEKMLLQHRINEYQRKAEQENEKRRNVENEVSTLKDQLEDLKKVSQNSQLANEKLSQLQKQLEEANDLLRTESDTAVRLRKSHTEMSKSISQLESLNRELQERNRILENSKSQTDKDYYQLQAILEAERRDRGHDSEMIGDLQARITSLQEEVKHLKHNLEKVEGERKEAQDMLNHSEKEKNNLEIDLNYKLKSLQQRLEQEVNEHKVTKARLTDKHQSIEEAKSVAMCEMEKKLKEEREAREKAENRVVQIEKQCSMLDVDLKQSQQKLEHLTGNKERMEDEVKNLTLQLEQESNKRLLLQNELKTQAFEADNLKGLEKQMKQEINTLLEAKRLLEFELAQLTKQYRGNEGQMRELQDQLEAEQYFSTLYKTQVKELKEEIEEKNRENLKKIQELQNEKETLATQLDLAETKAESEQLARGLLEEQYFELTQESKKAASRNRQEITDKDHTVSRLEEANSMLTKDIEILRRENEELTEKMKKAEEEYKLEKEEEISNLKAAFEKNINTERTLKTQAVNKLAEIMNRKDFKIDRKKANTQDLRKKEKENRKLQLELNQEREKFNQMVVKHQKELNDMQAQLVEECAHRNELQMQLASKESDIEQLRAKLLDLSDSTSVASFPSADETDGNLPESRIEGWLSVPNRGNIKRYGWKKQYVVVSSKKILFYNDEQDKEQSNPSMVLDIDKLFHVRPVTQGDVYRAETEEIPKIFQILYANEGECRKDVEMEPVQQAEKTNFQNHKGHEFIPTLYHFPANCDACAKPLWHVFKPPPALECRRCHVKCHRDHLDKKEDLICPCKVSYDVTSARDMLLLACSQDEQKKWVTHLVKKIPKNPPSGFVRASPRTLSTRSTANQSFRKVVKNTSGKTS

[3] = molecular target: T1, Gamma-aminobutyric acid receptor subunit alpha-1 (Homo sapiens, UniProt P14867); assay: Selectivity interaction (GPCR panel (PDSP screen)) EUB0000297b GABRA1
T1 sequence (P14867 whole entry): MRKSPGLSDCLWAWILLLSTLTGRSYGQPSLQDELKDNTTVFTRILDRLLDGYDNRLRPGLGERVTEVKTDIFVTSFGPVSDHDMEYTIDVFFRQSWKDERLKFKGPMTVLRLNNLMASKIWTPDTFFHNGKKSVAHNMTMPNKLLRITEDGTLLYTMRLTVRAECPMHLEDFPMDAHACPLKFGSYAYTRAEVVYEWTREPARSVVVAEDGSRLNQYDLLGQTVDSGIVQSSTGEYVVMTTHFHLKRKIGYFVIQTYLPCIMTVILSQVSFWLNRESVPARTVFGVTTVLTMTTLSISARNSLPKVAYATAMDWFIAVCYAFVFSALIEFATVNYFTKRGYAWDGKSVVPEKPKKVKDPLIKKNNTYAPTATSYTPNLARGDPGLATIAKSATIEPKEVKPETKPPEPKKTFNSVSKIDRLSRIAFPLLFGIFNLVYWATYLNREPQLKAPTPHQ

[4] = molecular target: T2, Sodium-dependent dopamine transporter (Homo sapiens, UniProt Q01959); assay: Selectivity interaction (GPCR panel (PDSP screen)) EUB0000741a SLC6A3
T2 sequence (Q01959 whole entry, the tested form may be a part): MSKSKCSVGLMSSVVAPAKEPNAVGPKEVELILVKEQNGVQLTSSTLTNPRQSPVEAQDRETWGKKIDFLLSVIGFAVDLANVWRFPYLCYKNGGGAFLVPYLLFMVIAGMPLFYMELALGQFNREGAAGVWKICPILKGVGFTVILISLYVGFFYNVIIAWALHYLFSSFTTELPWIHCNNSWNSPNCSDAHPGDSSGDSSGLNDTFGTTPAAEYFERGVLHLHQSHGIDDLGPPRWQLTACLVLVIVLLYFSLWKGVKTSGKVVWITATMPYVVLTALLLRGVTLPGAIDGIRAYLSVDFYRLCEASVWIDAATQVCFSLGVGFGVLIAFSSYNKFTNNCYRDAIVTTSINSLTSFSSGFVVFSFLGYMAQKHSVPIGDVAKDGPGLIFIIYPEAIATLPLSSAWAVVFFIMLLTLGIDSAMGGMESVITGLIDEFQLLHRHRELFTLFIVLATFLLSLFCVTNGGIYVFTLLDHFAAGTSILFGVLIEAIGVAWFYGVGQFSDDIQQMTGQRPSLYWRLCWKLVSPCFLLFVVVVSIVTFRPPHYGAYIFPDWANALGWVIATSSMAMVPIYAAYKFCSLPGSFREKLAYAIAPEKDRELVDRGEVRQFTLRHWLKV

[5] = molecular target: Phosphatidylinositol 3-kinase C2 domain-containing subunit gamma (Homo sapiens) (UniProt O75747); assay: Selectivity interaction (KinomeScan (DiscoverX)) EUB0000007b PIK3C2G; details: at 1 µM
[6] = molecular target: Transcription initiation factor TFIID subunit 1 (Homo sapiens, UniProt P21675); assay: Selectivity interaction (BRD panel (HTRF assay)) EUB0000007b TAF1
Sequence of Transcription initiation factor TFIID subunit 1 (P21675 whole entry): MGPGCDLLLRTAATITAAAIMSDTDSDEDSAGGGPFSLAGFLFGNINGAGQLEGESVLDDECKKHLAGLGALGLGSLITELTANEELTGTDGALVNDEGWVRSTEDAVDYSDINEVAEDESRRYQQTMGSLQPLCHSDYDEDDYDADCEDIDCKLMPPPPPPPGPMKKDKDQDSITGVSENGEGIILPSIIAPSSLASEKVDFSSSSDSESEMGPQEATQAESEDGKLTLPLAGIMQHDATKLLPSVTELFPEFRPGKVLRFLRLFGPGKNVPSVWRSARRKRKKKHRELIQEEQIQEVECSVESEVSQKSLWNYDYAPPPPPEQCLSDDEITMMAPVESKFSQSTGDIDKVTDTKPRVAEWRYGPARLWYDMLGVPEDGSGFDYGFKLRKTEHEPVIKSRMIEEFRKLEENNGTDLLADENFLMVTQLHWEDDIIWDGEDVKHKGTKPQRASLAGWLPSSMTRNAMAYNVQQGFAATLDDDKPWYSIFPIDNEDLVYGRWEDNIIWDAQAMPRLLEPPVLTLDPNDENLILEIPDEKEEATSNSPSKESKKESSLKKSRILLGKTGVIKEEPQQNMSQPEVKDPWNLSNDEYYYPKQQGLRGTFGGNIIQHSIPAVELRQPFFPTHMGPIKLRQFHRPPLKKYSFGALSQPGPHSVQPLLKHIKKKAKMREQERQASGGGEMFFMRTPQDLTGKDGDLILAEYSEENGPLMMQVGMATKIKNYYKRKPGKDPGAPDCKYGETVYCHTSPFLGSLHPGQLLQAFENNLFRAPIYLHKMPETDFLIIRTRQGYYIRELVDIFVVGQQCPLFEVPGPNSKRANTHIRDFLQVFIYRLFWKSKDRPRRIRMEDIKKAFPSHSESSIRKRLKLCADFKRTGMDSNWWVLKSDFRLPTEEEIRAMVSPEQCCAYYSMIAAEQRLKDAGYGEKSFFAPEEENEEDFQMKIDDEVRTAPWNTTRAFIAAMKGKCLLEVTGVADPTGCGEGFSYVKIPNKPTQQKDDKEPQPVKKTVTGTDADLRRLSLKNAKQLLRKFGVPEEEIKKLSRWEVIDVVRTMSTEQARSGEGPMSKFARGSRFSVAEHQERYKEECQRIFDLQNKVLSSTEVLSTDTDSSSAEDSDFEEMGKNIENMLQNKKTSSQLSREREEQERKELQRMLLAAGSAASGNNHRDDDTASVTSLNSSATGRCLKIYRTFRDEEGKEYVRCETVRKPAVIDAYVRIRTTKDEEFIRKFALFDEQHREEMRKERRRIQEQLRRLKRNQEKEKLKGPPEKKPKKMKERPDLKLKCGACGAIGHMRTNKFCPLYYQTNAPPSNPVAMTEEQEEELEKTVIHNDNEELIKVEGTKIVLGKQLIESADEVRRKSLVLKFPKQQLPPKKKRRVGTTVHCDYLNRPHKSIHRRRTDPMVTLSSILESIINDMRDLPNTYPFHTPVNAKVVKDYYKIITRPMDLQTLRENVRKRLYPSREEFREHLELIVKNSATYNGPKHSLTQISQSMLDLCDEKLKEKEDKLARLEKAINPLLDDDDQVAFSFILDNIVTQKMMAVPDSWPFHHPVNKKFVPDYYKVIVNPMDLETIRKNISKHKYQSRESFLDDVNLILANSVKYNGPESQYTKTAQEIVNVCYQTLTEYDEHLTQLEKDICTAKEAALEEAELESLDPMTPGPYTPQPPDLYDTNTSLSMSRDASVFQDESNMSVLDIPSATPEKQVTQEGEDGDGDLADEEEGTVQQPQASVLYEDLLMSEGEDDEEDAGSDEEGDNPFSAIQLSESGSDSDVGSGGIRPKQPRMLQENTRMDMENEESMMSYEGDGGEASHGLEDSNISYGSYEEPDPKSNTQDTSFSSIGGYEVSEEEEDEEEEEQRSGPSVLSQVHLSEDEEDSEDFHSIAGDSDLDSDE

Matrilysin = molecular target: T3, Matrilysin (Homo sapiens, UniProt P09237); assay: Selectivity interaction (MMPs panel (FRET assay)) EUB0000730a MMP7
T3 sequence (P09237 whole entry): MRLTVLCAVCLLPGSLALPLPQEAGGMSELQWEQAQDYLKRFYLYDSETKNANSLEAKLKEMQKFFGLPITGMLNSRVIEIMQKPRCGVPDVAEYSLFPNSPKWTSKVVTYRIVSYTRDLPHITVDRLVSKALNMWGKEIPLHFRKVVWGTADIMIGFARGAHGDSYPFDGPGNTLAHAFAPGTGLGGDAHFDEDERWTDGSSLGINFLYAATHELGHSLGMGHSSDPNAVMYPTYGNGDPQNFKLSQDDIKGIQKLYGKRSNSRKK

D(1B) dopamine receptor [7] = molecular target: T4, D(1B) dopamine receptor (Homo sapiens, UniProt P21918); assay: Selectivity interaction (GPCR panel (PDSP screen)) EUB0000730a DRD5
T4 sequence (P21918 whole entry): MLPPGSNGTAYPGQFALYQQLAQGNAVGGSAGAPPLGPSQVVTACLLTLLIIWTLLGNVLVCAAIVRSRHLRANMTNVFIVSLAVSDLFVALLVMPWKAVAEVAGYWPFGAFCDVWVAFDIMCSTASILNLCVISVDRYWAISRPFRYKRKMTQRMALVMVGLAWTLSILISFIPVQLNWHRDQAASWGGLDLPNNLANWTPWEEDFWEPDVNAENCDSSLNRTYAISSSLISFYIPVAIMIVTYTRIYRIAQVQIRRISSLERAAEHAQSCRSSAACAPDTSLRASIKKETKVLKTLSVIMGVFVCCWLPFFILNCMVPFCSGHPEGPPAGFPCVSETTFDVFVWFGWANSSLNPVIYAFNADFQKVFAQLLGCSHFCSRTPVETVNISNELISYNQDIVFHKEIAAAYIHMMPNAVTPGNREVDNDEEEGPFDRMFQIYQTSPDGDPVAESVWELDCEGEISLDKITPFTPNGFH

[8] = molecular target: Cyclin-dependent kinase 3 (Homo sapiens) (UniProt Q00526); details: at 100 nM
Interstitial collagenase = Interstitial collagenase (Homo sapiens, UniProt P03956); assay: Selectivity interaction (MMPs panel (FRET assay)) EUB0000730a MMP1
[9] = molecular target: cAMP-dependent protein kinase catalytic subunit alpha (Homo sapiens, UniProt P17612); assay: Selectivity interaction (Enzyme panel (Invitrogen)) EUB0000730a PRKACA
[10] = molecular target: Cyclin-dependent kinase-like 3 (Homo sapiens) (UniProt Q8IVW4); details: at 100 nM
D(1B) dopamine receptor [11] = molecular target: T4, D(1B) dopamine receptor; details: at 10 µM
[12] = molecular target: Macrophage metalloelastase (Homo sapiens, UniProt P39900); assay: Selectivity interaction (MMPs panel (FRET assay)) EUB0000730a MMP12
[13] = molecular target: MAP kinase-activated protein kinase 2 (Homo sapiens, UniProt P49137); assay: Selectivity interaction (Enzyme panel (Invitrogen)) EUB0000730a MAPKAPK2
Aurora kinase A = Aurora kinase A (Homo sapiens, UniProt O14965); assay: Selectivity interaction (Enzyme panel (Invitrogen)) EUB0000730a STK6
Sequence of Aurora kinase A (O14965 whole entry): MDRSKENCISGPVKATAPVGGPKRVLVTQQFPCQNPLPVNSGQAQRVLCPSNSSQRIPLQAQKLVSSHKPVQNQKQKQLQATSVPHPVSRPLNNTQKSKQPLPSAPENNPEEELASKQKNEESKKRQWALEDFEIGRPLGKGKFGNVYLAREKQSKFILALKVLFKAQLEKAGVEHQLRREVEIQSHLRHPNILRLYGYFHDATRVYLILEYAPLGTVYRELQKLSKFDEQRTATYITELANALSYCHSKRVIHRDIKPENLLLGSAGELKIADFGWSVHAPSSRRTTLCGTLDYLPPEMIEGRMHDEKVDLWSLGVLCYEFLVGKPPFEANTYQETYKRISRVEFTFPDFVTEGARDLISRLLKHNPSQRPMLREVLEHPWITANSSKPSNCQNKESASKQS

[14] = molecular target: 5'-AMP-activated protein kinase catalytic subunit alpha-1 (Homo sapiens, UniProt Q13131); assay: Selectivity interaction (Enzyme panel (Invitrogen)) EUB0000730a PRKAA1
Neutrophil collagenase = Neutrophil collagenase (Homo sapiens, UniProt P22894); assay: Selectivity interaction (MMPs panel (FRET assay)) EUB0000730a MMP8
[15] = molecular target: Cyclin-dependent kinase 19 (Homo sapiens) (UniProt Q9BWU1); details: at 100 nM
Stromelysin-1 = Stromelysin-1 (Homo sapiens, UniProt P08254); assay: Selectivity interaction (MMPs panel (FRET assay)) EUB0000730a MMP3
[16] = molecular target: T1, Gamma-aminobutyric acid receptor subunit alpha-1; assay: Selectivity interaction (GPCR panel (PDSP screen)) EUB0000301b GABRA1
[17] = molecular target: Cyclin-dependent kinase 8 (Homo sapiens) (UniProt P49336); assay: Selectivity interaction (KinomeScan (DiscoverX)) EUB0000301b CDK8; details: at 1 µM
[18] = molecular target: eIF-2-alpha kinase GCN2 (Homo sapiens) (UniProt Q9P2K8); assay: Selectivity interaction (KinomeScan (DiscoverX)) EUB0000301b EIF2AK4; details: at 1 µM
[19] = molecular target: G protein-coupled receptor kinase 3 (Homo sapiens, UniProt P35626); assay: Selectivity interaction (KinomeScan (DiscoverX, competition-binding assay)) EUB0001135a ADRBK2
Histamine H1 receptor = Histamine H1 receptor (Homo sapiens, UniProt P35367); assay: Selectivity interaction (GPCR panel (PDSP screen)) EUB0001135a HRH1; details: at 10 µM
[20] = molecular target: Beta-3 adrenergic receptor (Homo sapiens, UniProt P13945); assay: Selectivity interaction (GPCR panel (PDSP screen)) EUB0001135a ADRB3; details: at 10 µM
[21] = molecular target: T5, Death-associated protein kinase 3 (Homo sapiens, UniProt O43293); assay: Selectivity interaction (KinomeScan (DiscoverX, competition-binding assay)) EUB0001135a DAPK3
[22] = molecular target: T5, Death-associated protein kinase 3; assay: Selectivity interaction (KinomeScan (DiscoverX)) EUB0001135a DAPK3; details: at 1 µM
[23] = molecular target: T6, G protein-coupled receptor kinase 3 (Homo sapiens) (UniProt P35626); assay: Selectivity interaction (KinomeScan (DiscoverX)) EUB0001135a ADRBK2; details: at 1 µM
T6 sequence (whole entry): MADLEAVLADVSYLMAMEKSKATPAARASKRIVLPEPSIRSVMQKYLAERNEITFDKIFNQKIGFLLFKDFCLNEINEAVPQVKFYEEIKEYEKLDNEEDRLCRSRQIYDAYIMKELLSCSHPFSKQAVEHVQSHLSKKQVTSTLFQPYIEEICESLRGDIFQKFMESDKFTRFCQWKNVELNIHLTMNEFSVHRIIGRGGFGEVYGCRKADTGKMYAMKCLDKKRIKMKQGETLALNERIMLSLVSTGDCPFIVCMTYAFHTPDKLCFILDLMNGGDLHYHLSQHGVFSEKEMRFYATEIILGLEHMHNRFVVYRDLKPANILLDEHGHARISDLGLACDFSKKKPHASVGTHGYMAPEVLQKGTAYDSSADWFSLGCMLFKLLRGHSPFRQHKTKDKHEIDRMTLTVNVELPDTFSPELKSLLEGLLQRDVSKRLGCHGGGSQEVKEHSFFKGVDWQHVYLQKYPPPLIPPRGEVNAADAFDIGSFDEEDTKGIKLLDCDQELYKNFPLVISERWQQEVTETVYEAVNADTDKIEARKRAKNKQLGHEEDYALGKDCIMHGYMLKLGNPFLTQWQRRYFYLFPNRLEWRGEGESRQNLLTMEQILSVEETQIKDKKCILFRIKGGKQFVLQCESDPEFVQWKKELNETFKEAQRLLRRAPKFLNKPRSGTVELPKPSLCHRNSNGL

[24] = molecular target: T2, Sodium-dependent dopamine transporter; assay: Selectivity interaction (GPCR panel (PDSP screen)) EUB0000541a SLC6A3
[25] = molecular target: Voltage-dependent L-type calcium channel subunit alpha-1C (Homo sapiens, UniProt Q13936); assay: Selectivity interaction (Eurofins Panlabs panel (receptors, ion channel, and other enzymes)) EUB0000310b CACNA1C; details: at 10 µM
[26] = molecular target: STE20/SPS1-related proline-alanine-rich protein kinase (Homo sapiens) (UniProt Q9UEW8); assay: Selectivity interaction (KinomeScan (DiscoverX)) EUB0000310b STK39
[27] = molecular target: Interferon-induced, double-stranded RNA-activated protein kinase (Homo sapiens) (UniProt P19525); assay: Selectivity interaction (KinomeScan (DiscoverX)) EUB0000310b EIF2AK2
[28] = molecular target: Serine/threonine-protein kinase 38-like (Homo sapiens, UniProt Q9Y2H1); assay: Selectivity interaction (KinomeScan (DiscoverX)) EUB0000310b STK38L
[29] = molecular target: Sigma intracellular receptor 2 (Homo sapiens, UniProt Q5BJF2); assay: Selectivity interaction (GPCR panel (PDSP screen)) EUB0000310b TMEM97
Sequence of Sigma intracellular receptor 2 (Q5BJF2 whole entry): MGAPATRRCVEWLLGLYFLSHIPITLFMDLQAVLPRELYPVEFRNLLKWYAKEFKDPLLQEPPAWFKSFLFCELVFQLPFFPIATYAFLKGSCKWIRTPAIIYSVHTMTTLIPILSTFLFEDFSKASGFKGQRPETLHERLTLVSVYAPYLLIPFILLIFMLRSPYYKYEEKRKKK

[30] = molecular target: Dual specificity mitogen-activated protein kinase kinase 2 (Homo sapiens, UniProt P36507); assay: Selectivity interaction (Kinase panel (enzymatic assay)) EUB0000684a MAP2K2
[31] = molecular target: Dual specificity mitogen-activated protein kinase kinase 1 (Homo sapiens, UniProt Q02750); assay: Selectivity interaction (Kinase panel (enzymatic assay)) EUB0000684a MAP2K1
[32] = molecular target: Serine/threonine-protein kinase PAK 2 (Homo sapiens) (UniProt Q13177); assay: Selectivity interaction (KinomeScan (DiscoverX)) EUB0000727a PAK2
[33] = molecular target: Serine/threonine-protein kinase mTOR (Homo sapiens) (UniProt P42345); assay: Selectivity interaction (KinomeScan (DiscoverX)) EUB0000727a MTOR; details: at 100 nM
D(1B) dopamine receptor [34] = molecular target: T4, D(1B) dopamine receptor; assay: Selectivity interaction (GPCR panel (PDSP screen)) EUB0000727a DRD5
[35] = molecular target: SRSF protein kinase 1 (Homo sapiens) (UniProt Q96SB4); assay: Selectivity interaction (KinomeScan (DiscoverX)) EUB0000727a SRPK1; details: at 100 nM

CN([C@@H]1CCc2c(CC(=O)O)c3ccccc3n2C1)S(=O)(=O)c1ccc(F)cc1 [MK-7246]
% of control [1]: 44%
% of control [2]: 34%
Ki [3]: 1110 nM

CC(C)(C)OC(=O)N1CCCC1CNC1CCC(c2cc(F)ccc2F)(S(=O)(=O)c2ccc(Cl)cc2)CC1 (stereo unspecified) [GSI-NC]
Ki [4]: > 10000 nM

CN(C)C(=O)/C(C#N)=C/c1ccc(-c2nc3cnc4c(ccn4C)c3n2C2CCCCC2)o1
% of control [5]: 82%
IC50 [6]: 170 nM

CCOC(=O)c1cc2cc(-c3cc(C(=O)NCc4ccc(C(=O)O)cc4)nn3C)ccc2[nH]1 [BI 4394]
IC50 (Matrilysin): > 22000 nM
Ki (D(1B) dopamine receptor [7]): > 10000 nM
% of control [8]: 43%
IC50 (Interstitial collagenase): > 22000 nM
IC50 [9]: 1600 nM
% of control [10]: 0%
% of inhibition (D(1B) dopamine receptor [11]): 60%
IC50 [12]: > 22000 nM
IC50 [13]: 1100 nM
IC50 (Aurora kinase A): 1300 nM
IC50 [14]: 1900 nM
IC50 (Neutrophil collagenase): > 22000 nM
% of control [15]: 0%
IC50 (Stromelysin-1): > 22000 nM

O=c1nc(-c2ccccn2)sc2ccccc12 [BTZO-1]
Ki [16]: 934 nM
% of control [17]: 36%
% of control [18]: 47%

O=C1NC(c2ccccn2)Sc2ccccc21 (stereo unspecified) [BTZO-4]
Kd [19]: > 10000 nM
% of inhibition (Histamine H1 receptor): 49.9%
% of inhibition [20]: 32.4%
Kd [21]: > 10000 nM
% of control [22]: 0%
% of control [23]: 42%

O=C(Nc1ccc(-n2nc(-c3cccnc3)cc2C(F)(F)F)cn1)c1ccc(-c2ccccc2)c(F)c1 [BI 2049]
Ki [24]: > 10000 nM

C[C@H](NC(=O)c1cnc2n1[C@](C)(Cc1ccc(C#N)cc1)C(=O)N2c1cc(Cl)c(F)c(Cl)c1)C(=O)NC1(c2ccccn2)CC1 [BI 1950]
% of inhibition [25]: 72%
% of control [26]: 24%
% of control [27]: 34%
% of control [28]: 49%
% of inhibition [29]: 26%

O=C(c1ccc(F)c(F)c1Nc1ccc(I)cc1F)N1CC(O)([C@@H]2CCCCN2)C1 [COBIMETINIB]
IC50 [30]: 23 nM
IC50 [31]: 31 nM

Cn1nc(C(=O)NCc2ccc(C(=O)O)cc2)cc1-c1ccc2[nH]ccc2c1 [BI 4395]
% of control [32]: 23%
% of control [33]: 31%
Ki (D(1B) dopamine receptor [34]): > 10000 nM
% of control [35]: 33%
